“Also recorded” adds a separate entry of the source.
Key:
[1] = test system: thioglycolate-induced peritonitis; test: Thioglycolate-induced peritonitis murine model; format: in vivo, C57BL/6J mice; conditions: 50 mg/kg i.p. 1 h prior to thioglycolate
Description: Therapeutic efficacy of the compounds of the present invention was assessed using thioglycolate-induced peritonitis murine models as described by Cook A D et al. (J Immunol. 2003; 171(9):4816-4823) and Tsai J M et al. (Blood Adv. 2019; 3(18):2713-2721. doi: 10.1182/bloodadvances.2018024026).
C57BL/6J mice were injected intraperitoneally (i.p.) with 1 mL of compounds at 50 mg/kg 1 h prior to the induction of peritonitis. Peritonitis was then induced with 1 ml of sterile thioglycolate broth 4% (wt/vol) or PBS as control. After 3 h, mice were anesthetized by i.p. injection with a solution of PBS containing 5 mg/ml ketamine and 1 mg/ml xylazine and peritoneal cavities were washed with 5 ml ice-cold sterile Ca2+/Mg2+-free HBSS 1×containing EDTA 2 mM. Peritoneal exudate cells (PECs) were centrifuged at 1200 rpm for 5 min at 4° C. and red cells lysed. PECs were washed, resuspended in PBS 10% FBS, incubated with anti-CD16/CD32 and mIgG FcR blockers and then stained with fluorescently conjugated antibodies to characterize migrated leukocytes (anti-CD45, anti-CD11b, anti-Ly6G, anti-CD8a, anti-CD4, anti-CD3). Cell viability was measured by 7-AAD exclusion. Specimens were acquired by flow cytometry using MACSQuant Analyzer (Miltenyi Biotec) and analysed using FlowJo software.
Animals: four C57BL/6J mice per group for each compound versus four vehicle treated mice.
Read out was done 1 h after thioglycolate injection.
Readout method: flow cytometry to characterise migrated leukocytes using anti-CD45, anti-CD11b, anti-Ly6G, anti-CD8a, anti-CD4, anti-CD3.
Results and statistical analysis: Results were analysed using FlowJo software. Data were shown as mean±SEM. Two-tailed Student's t test using a significance level of 0.05 is used for the statistical analysis.

[2] = test system: acute pancreatitis murine model; test: Caerulein-induced acute pancreatitis murine model; format: in vivo, Balb/c mice; parameters: Serum IL33 level / Serum TGF-B level: unit not given here; conditions: for Acinar cell necrosis (group mean score) / Haemorrhage (group mean score) / Interstitial oedema (group mean score) / Mean terminal BW (% of initial) / Mean terminal pancreas weight / Pancreas histopathology observations (H&E) / Schmidt Score (H&E) / Pancreas IL33 level / Pancreas MPO activity / Pancreas TGF-B level / Serum IL33 level / Serum TGF-B level / Serum amylase level / Serum lipase level: 1st experiment, 15 mg/kg IV, Ib-010a and IVc-059a 150 mg/kg PO, Pirfenidone 40 mg/kg IV; for Acinar cell necrosis (group mean score) / Haemorrhage (group mean score) / Interstitial oedema (group mean score) / Mean terminal BW (% of initial) / Mean terminal pancreas weight / Pancreas histopathology observations (H&E) / Schmidt Score (H&E): caerulein induced; for Schmidt Score (H&E): induced + vehicle = 10, non-induced = 0; for Pancreas IL33 level / Pancreas MPO activity / Pancreas TGF-B level: terminal pancreatic tissue; for Serum IL33 level / Serum TGF-B level / Serum amylase level / Serum lipase level: terminal serum; for pancreatic tissue levels of IL33: compared to the induced group
Description: Therapeutic efficacy of the compounds according to the present invention was assessed on an acute pancreatitis murine model. Tissue samples were obtained to allow post in-life analysis of pancreatitis parameters. Plasma samples were also obtained to assess animal exposure levels after administration of the compounds.
Animals: A total of 70 female Balb/c mice aged 8-10 weeks weighing approximately 20-25 g were used for the study (Charles River). After 7 days acclimatization, they were allocated into the different groups. […] Cages, bedding, and water were sanitized before use. Animals were provided with Corn-o-cobs enrichment bedding to provide environment enrichment and nesting material. […] The animal holding room were maintained as follows—room temperature at 20-24° C., humidity at 30-70% and a 12 h light/dark cycle used. Although animals used in this study were immuno-competent, preparation of dosing solutions and dosing/weighing of animals were carried out in a sterile biosafety cabinet.
Final formulation was in 5% DMSO, 10% Solutol, 10% PEG400, 75% 0.9% Saline and pH adjusted to 7 with 0.5M NaOH solution.
Final formulation is in 5% DMSO, 10% Solutol, 10% PEG400, 75% 0.9% Saline and pH adjusted to 7 with 0.5M NaOH solution. For per os (PO) dosing IVc-059a is formulated in water. Drug solutions were formulated on the day of dosing.
The purposes of this study were to assess efficacy compounds in an acute pancreatitis model (14 days), generate tissue samples to allow post in-life analysis of pancreatitis parameters and generate four plasma samples to assess animal exposure levels after first and last injection obtained from blood samples taken 1 h and 24 h after first and last injection.
Study Design: On the first study day animals were randomly be assigned to treatment groups, ensuring an equal spread of bodyweight. Mice (except negative control group) were treated with test compounds were given 5 minutes prior to caerulein dosing, followed by injection with caerulein at […] via intraperitoneal route (IP) daily during the study.
Treatment of test compounds were given 5 minutes prior to caerulein dosing.
Sampling and post in-life analyses: at times indicated above a whole blood sample (60 μl) were taken from the lateral tail vein into tubes coated with K2-EDTA. Plasma samples were prepared and stored frozen at −20° C. Plasma samples were sent to client bioanalysis provider Eurofins (FR) for quantification of compound.
Terminal Sampling: Prior to termination animals were weighed. Terminal study animals were culled via CO2 inhalation. A terminal blood sample was taken via cardiac puncture and plasma prepared. Lipase and Amylase activities were measured via ELISA using commercially available ELISA kits. Remaining plasma was stored for future cytokine analyses. Pancreas tissue was resected and weighed, and a section ([…]) snap frozen and analysed for quantification of compound in pancreas sample. A section ([…]) was processed for measurement of MPO activity, IL-33 and TGF-B levels via ELISA. The remainder was fixed in formalin and embedded in paraffin wax. H&E staining was carried out and section assessed using Schmidts standard scoring system, examining: edema, inflammatory infiltration, parenchymal necrosis, haemorrhage. Massons' Trichrome staining was carried out and area covered by fibrotic tissue quantified digitally using QuPath software. Terminal serum samples was used to assess blood chemistry using an IdeXX CHEM15 and LYTE4 clip (4 animals per treatment group).
Histopathology assessment of pancreatic injury based on 4 criteria: Oedema, Inflammatory infiltration, Parenchymal necrosis, Haemorrhage and scored as described below.
Schmidt score is the evaluation of the efficacy of the compounds based on the four histopathology criteria as described in the table below.

[3] = second experiment, IV, 15 mg/kg, Pirfenidone 100 mg/kg

SMILES | % of reduction, CD4+ lymphocytes, treated over vehicle treated mice [1] | % of reduction, CD8+ lymphocytes, treated over vehicle treated mice [1] | % of reduction, Leukocytes (CD45+ cells), treated over vehicle treated mice [1] | % of reduction, PMNs (CD11b-Ly6G double + cells), treated over vehicle treated mice [1] | Acinar cell necrosis (group mean score) [2] | Haemorrhage (group mean score) [2] | Interstitial oedema (group mean score) [2] | Mean terminal BW (% of initial) [2] | Mean terminal pancreas weight [2] | Pancreas histopathology observations (H&E) [2] | Schmidt Score (H&E) [2] | Pancreas IL33 level [2] | Pancreas MPO activity [2] | Pancreas TGF-B level [2] | Serum IL33 level [2] | Serum TGF-B level [2] | Serum amylase level [2] | Serum lipase level [2] | TGF-B levels in pancreas ([2]; first experiment, IV) | pancreatic tissue levels of IL33 ([2]; first experiment, IV) | also measured
O=C(O)c1cc(NC(=O)c2cc(O)c(C(=O)Nc3ccc(O)c(C(=O)O)c3)cc2O)ccc1O [Ic-007a, 5-(4-(3-carboxy-4-hydroxyphenylaminocarbonyl)-2,5-dihydroxybenzamido)-2-hydroxy benzoic acid] | 35% | 71% | 48% | 80% | 1.0 | 1.0 | 1.0 | 91.2 % of initial | 0.109 g | Mild oedema observed; also recorded: Mild haemorrhage observed; also recorded: Mild acinar cell necrosis observed; also recorded: Leukocyte infiltration observed; also recorded: Disruption to the basophilic region | 6.0 | 147 ± 47 | 1.65 | 188 ± 77 | 34.93 | 6.17 | 34.86 | 9.28 | decreased significantly | significant decrease | Cell counts, CD4+ lymphocytes, treated mice ([1]; peritoneal exudate cells): 1.03 × 10^4; Cell counts, CD8+ lymphocytes, treated mice ([1]; peritoneal exudate cells): 0.54 × 10^4; Cell counts, Leukocytes (CD45+ cells), treated mice ([1]; peritoneal exudate cells): 31.3 × 10^4; Cell counts, PMNs (CD11b-Ly6G double + cells), treated mice ([1]; peritoneal exudate cells): 2.03 × 10^4
O=C(O)c1cc(NC(=O)c2cc(O)cc(C(=O)Nc3ccc(O)c(C(=O)O)c3)c2O)ccc1O [IIc-007a, 5-(3-(3-carboxy-4-hydroxyphenylaminocarbonyl)-2,5-dihydroxybenzamido)-2-hydroxy benzoic acid] | 40.0% | 20.0% | 11.8% | 27.3% |  |  |  |  |  |  |  |  |  |  |  |  |  |  |  |  | Amylase [2, 3]: 45.325 mU/mL; IL-33 [2, 3]: 340 ± 211 ng/mL; Lipase [2, 3]: 6.481 mU/mL; MPO [2, 3]: 2.74 ± 0.76 U/mg; Schmidt Score [2, 3]: 8.3 ± 1.6; TGF-B [2, 3]: 500 ± 195 ng/mL; Trichome staining (Fibrosis % area) [2, 3]: 1.821 ± 1.12 % area
O=C(O)c1cc(O)c(CN(Cc2cc(O)c(C(=O)O)cc2O)Cc2cc(O)c(C(=O)O)cc2O)cc1O [IIIc-061a, Tris(4-carboxy-2,5-dihydroxyphenylmethyl)amine] | 42.9% | 33.3% | −2.4% | −8.3% | 0.5 | 1.0 | 1.0 | 91.4 % of initial | 0.086 g | Mild oedema observed; also recorded: Mild haemorrhage observed; also recorded: Mild acinar cell necrosis observed; also recorded: Mild leukocyte infiltration observed; also recorded: Normal islet morphology observed | 3.5 | 177 ± 80 | 2.13 | 295 ± 146 | 33.72 | 4.65 | 38.38 | 9.79 | decreased significantly | significant decrease | Global Schmidt score ([2]; first experiment, vs caerulein control animals): especially improved; Schmidt Score ([2]; second experiment, H&E sections): lower scores than the positive control pirfenidone; Lipase activity in serum ([2]; second experiment, pirfenidone 100 mg/kg, compounds 15 mg/k, vs vehicle treated animals): significantly lower than that in vehicle treated animals; MPO activity in pancreatic tissue ([2]; second experiment, vs induced vehicle treated controls): significantly lower than induced vehicle treated controls
